Measurements: the Deep4Chem optical property database
Where “and” joins values, the source holds several entries; their conditions need not be identical. Identical values can stand only once.

Test: photoluminescence quantum yield (fraction); solvent given as SMILES

## CN(C)c1ccc(-c2ccc(C#N)s2)s1
In CCO
  photoluminescence quantum yield: 0.23

## c1cc2c3c(cccc3c1)-c1c-2ccc2ccc3ccccc3c12
In CCCCCCC
  photoluminescence quantum yield: 0.14

## CN(C)c1ccc(-c2ccc(-c3nc(C#N)c(C#N)n3C)cc2)cc1
In C1CCCCC1
  photoluminescence quantum yield: 0.98
In CC#N
  photoluminescence quantum yield: 0.013
In CO
  photoluminescence quantum yield: 0.011
In ClC(Cl)Cl
  photoluminescence quantum yield: 0.73

## CCCCCCN(CCCCCC)c1ccc(C#Cc2ccc(C#Cc3ccc(-c4ccc(C#Cc5ccc(C#Cc6ccc(N(CCCCCC)CCCCCC)cc6)cc5)cc4)cc3)cc2)cc1
In Cc1ccccc1
  photoluminescence quantum yield: 0.82

## c1ccc(-c2nc(-c3ccccc3)nc(-c3ccc(-c4ccc(N5c6ccccc6[Si](c6ccccc6)(c6ccccc6)c6ccccc65)cc4)cc3)n2)cc1
In c1cc(-n2c3ccccc3c3ccccc32)cc(-n2c3ccccc3c3ccccc32)c1
  photoluminescence quantum yield: 0.38

## CC(=O)c1ccn2c3c(c(-c4cc[n+](C)cc4)c2c1)CN(C)C3=O
In O
  photoluminescence quantum yield: 0.093

## COc1ccc(C#Cc2nc3ccccc3nc2-c2ccn(-c3ccccc3)c2)cc1
In ClCCl
  photoluminescence quantum yield: 0.24

## O=Cc1ccc(C#CC(C#Cc2ccc(C=O)o2)=Cc2ccc(C=C(C#Cc3ccc(C=O)o3)C#Cc3ccc(C=O)o3)cc2)o1
In ClC(Cl)Cl
  photoluminescence quantum yield: 0.11

## C(#Cc1cccs1)C(C#Cc1cccs1)=Cc1ccc(C=C(C#Cc2cccs2)C#Cc2cccs2)s1
In ClC(Cl)Cl
  photoluminescence quantum yield: 0.03 and 0.07

## Fc1ccc(N(c2ccccc2)c2ccc3ccc4c(N(c5ccccc5)c5ccc(F)cc5)ccc5ccc2c3c54)cc1
In ClCCl
  photoluminescence quantum yield: 0.8

## CC[n+]1c(C=C2C(=O)C(C=C3N(C)c4ccccc4C3(C)C)=C2[O-])sc2ccccc21
In CC(C)O
  photoluminescence quantum yield: 0.1

## Cc1ccc2c(c1)c1cc(C)ccc1n2-c1c(C#N)c(-n2c3ccc(C)cc3c3cc(C)ccc32)c(-n2c3ccc(C)cc3c3cc(C)ccc32)c(C#N)c1-n1c2ccc(C)cc2c2cc(C)ccc21
In Cc1ccccc1
  photoluminescence quantum yield: 0.474

## Cc1cc(C)c(B(c2ccc(-c3ccc4ccc5cccc6ccc3c4c56)cc2)c2c(C)cc(C)cc2C)c(C)c1
In Cc1ccccc1
  photoluminescence quantum yield: 0.61

## CC1(C)c2ccccc2N(c2ccc3nc4c5ccc(N6c7ccccc7C(C)(C)c7ccccc76)cc5c5cc(N6c7ccccc7C(C)(C)c7ccccc76)ccc5c4nc3c2)c2ccccc21
In c1cc(-c2cccc(-n3c4ccccc4c4ccccc43)c2)cc(-n2c3ccccc3c3ccccc32)c1
  photoluminescence quantum yield: 0.89

## COC(=O)c1ccc(/C=C2\N=C(c3ccc(OC)c(OC)c3)OC2=O)cc1
In C1COCCO1
  photoluminescence quantum yield: 0.348

## C(#Cc1cnc(C#Cc2ccccc2)nc1)c1ccccc1
In C1CCCCC1
  photoluminescence quantum yield: 0.0009

## F[B-]12OC(c3ccccc3)=Nc3cccc([n+]31)N=C(c1ccccc1)O2
In ClCCl
  photoluminescence quantum yield: 0.2

## COc1ccc2cc3cccc[n+]3cc2c1
In O
  photoluminescence quantum yield: 0.2

## CC1(C)C(/C=C/C2=C(Cl)C(=C/C=C3/N(CCCS(=O)(=O)[O-])c4ccccc4C3(C)C)/CCC2)=[N+](CCCS(=O)(=O)[O-])c2ccccc21
In CO
  photoluminescence quantum yield: 0.05

## C/C=C/C1=NC(=C\c2ccc([O-])cc2)/C(=O)N1C
In O
  photoluminescence quantum yield: 0.0006

## CCCCCCN1C(=O)c2cccc3c(-c4ccc(-c5cc(-c6ccc(C)cc6)nn5-c5ccccc5)s4)ccc(c23)C1=O
In ClCCl
  photoluminescence quantum yield: 0.18

## COc1ccc2c(c1)-c1ccccc1C2=O
In C1CCCCC1
  photoluminescence quantum yield: 0.0007
In CC#N
  photoluminescence quantum yield: 0.034
In CCO
  photoluminescence quantum yield: 0.002

## CC1=CC(C)=[N+]2C1=C(c1c3ccccc3c(-c3ccccc3)c3ccccc13)c1c(C)cc(C)n1[B-]2(F)F
In CC#N
  photoluminescence quantum yield: 0.007
In CCCCCC
  photoluminescence quantum yield: 0.9
In CCO
  photoluminescence quantum yield: 0.02
In CN(C)C=O
  photoluminescence quantum yield: 0.01
In Cc1ccccc1
  photoluminescence quantum yield: 0.79
In ClCCl
  photoluminescence quantum yield: 0.024

## COc1ccc(-c2nnc(-c3cc(-n4c5ccccc5c5ccccc54)c(-n4c5ccccc5c5ccccc54)cc3-c3nnc(-c4ccc(OC)cc4)o3)o2)cc1
In Cc1ccccc1
  photoluminescence quantum yield: 0.47

## N#Cc1ccc(-n2cccc2)cc1
In C1CCOC1
  photoluminescence quantum yield: 0.024
In CC#N
  photoluminescence quantum yield: 0.024
In CCCCCC
  photoluminescence quantum yield: 0.077
In CCOCC
  photoluminescence quantum yield: 0.023
In ClCCl
  photoluminescence quantum yield: 0.022

## c1ccc2c3c(ccc2c1)-c1cccc2cc4ccccc4c-3c12
In CCCCCCC
  photoluminescence quantum yield: 0.00078

## Cc1ccc(C2=[N+]3C(=Cc4ccc(C)n4[B-]3(F)F)c3ccccc32)[nH]1
In C1CCOC1
  photoluminescence quantum yield: 0.81
In CC#N
  photoluminescence quantum yield: 0.8
In CCCCCC
  photoluminescence quantum yield: 0.83
In CO
  photoluminescence quantum yield: 0.83
In Cc1ccccc1
  photoluminescence quantum yield: 0.78
In ClCCl
  photoluminescence quantum yield: 0.79

## CN(C)c1ccc(/C=C/c2nc3c(ccc4ccccc43)s2)cc1
In C1CCCCC1
  photoluminescence quantum yield: 0.012
In CC#N
  photoluminescence quantum yield: 0.008

## CCCCC#Cc1cccc2cc(CCCC)c3cc(-c4cc[b-]5c(c4)c(CCCC)cc4cccc(C#CCCCC)[n+]54)cc[b-]3[n+]12
In C1CCCCC1
  photoluminescence quantum yield: 0.12

## Cc1ccc(-c2ccc(-c3ccc(C)cc3)c(/C(=C(/c3ccccc3)c3cc(-c4ccc(C)cc4)ccc3-c3ccc(C)cc3)c3ccccc3)c2)cc1
In C1CCOC1
  photoluminescence quantum yield: 0.32

## CCCN1C(=O)c2c3c(c4c(c2C1=O)CCc1cc(-c2ccc(N(C)C)cc2)c(OC)cc1-4)-c1cc(OC)c(-c2ccc(N(C)C)cc2)cc1CC3
In C1CCCCC1
  photoluminescence quantum yield: 0.752
In C1CCOC1
  photoluminescence quantum yield: 0.069
In CCOC(C)=O
  photoluminescence quantum yield: 0.065
In Cc1ccccc1
  photoluminescence quantum yield: 0.726
In ClCCl
  photoluminescence quantum yield: 0.023

## O=c1oc2ccccc2cc1-c1ccc([N+](=O)[O-])cc1
In C1CCOC1
  photoluminescence quantum yield: 0.006
In CC#N
  photoluminescence quantum yield: 0.0022
In CS(C)=O
  photoluminescence quantum yield: 0.0013
In ClC(Cl)Cl
  photoluminescence quantum yield: 0.013

## CCOC(=O)CSc1nc2c(c(C#N)c1C#N)CCCC2
In c1ccccc1
  photoluminescence quantum yield: 0.04

## c1cc2ccc3cc4cccc5ccc6cc(c1)c2c3c6c54
In C1CCCCC1
  photoluminescence quantum yield: 0.31
In CC#N
  photoluminescence quantum yield: 0.32
In CO
  photoluminescence quantum yield: 0.38
In Cc1ccccc1
  photoluminescence quantum yield: 0.47
In ClCCl
  photoluminescence quantum yield: 0.24

## CCN(CC)c1ccc2c(-c3ccccc3C(=O)O)c3c([o+]c2c1)/C(=C/Nc1ccccc1)CCC3
In CCO
  photoluminescence quantum yield: 0.35
In ClC(Cl)Cl
  photoluminescence quantum yield: 0.35
In ClCCl
  photoluminescence quantum yield: 0.6

## CCCCCCCCCCCCNc1cccc2[n+]1[B-](F)(F)n1c(c3cccc4cccc1c43)=N2
In C1CCOC1
  photoluminescence quantum yield: 0.18
In CC#N
  photoluminescence quantum yield: 0.12
In CCCCCC
  photoluminescence quantum yield: 0.58
In Cc1ccccc1
  photoluminescence quantum yield: 0.36
In ClCCl
  photoluminescence quantum yield: 0.25

## CCC1=C(C)C(=O)n2c1cc1c(CCC(=O)OC)c(C)c(C)n1c2=O
In CO
  photoluminescence quantum yield: 0.82
In CS(C)=O
  photoluminescence quantum yield: 1
In ClC(Cl)Cl
  photoluminescence quantum yield: 0.95
In c1ccccc1
  photoluminescence quantum yield: 1

## CCOC(=O)CN1C(=O)C2=C(c3ccc(N4CCCCC4)cc3)N(CC(=O)OCC)C(=O)C2=C1c1ccccc1
In CC#N
  photoluminescence quantum yield: 0.01
In CS(C)=O
  photoluminescence quantum yield: 0.12
In Cc1ccccc1
  photoluminescence quantum yield: 0.34

## CCCC1(CCC)c2ccccc2-c2ccc(-c3ccc4c(c3)C(CCC)(CCC)c3cc(-c5ccc6c(c5)C(CCC)(CCC)c5ccccc5-6)ccc3-4)cc21
In C1CCCCC1
  photoluminescence quantum yield: 0.91

## CCCCCCCCCCCCC(CCCCCCCCCC)Cn1c2cc(/C=C/C=C(C#N)C#N)c3cccc4c5cccc6c(/C=C/C=C(C#N)C#N)cc1c(c65)c2c34 (stereo not drawn)
In C1CCCCC1
  photoluminescence quantum yield: 0.044
In CC#N
  photoluminescence quantum yield: 0.061
In Cc1ccccc1
  photoluminescence quantum yield: 0.073
In ClCCl
  photoluminescence quantum yield: 0.067

## CCCCCCCCCCCCCCCCOc1cc(C#Cc2ccc3ccccc3c2-c2c(C#Cc3cc(OCCCCCCCCCCCCCCCC)c(C#Cc4ccc(C=C(C#N)C#N)cc4)cc3OCCCCCCCCCCCCCCCC)ccc3ccccc23)c(OCCCCCCCCCCCCCCCC)cc1C#Cc1ccc(C=C(C#N)C#N)cc1
In Brc1ccccc1
  photoluminescence quantum yield: 0.63
In C1CCCCC1
  photoluminescence quantum yield: 0.99
In C1CCOC1
  photoluminescence quantum yield: 0.3
In C1COCCO1
  photoluminescence quantum yield: 0.94
In CCCCCC
  photoluminescence quantum yield: 0.98
In CCCCCCCCO
  photoluminescence quantum yield: 0.52
In CCCCOCCCC
  photoluminescence quantum yield: 0.97
In CCOC(C)=O
  photoluminescence quantum yield: 0.37
In CCOCC
  photoluminescence quantum yield: 0.87
In Cc1ccccc1
  photoluminescence quantum yield: 0.95
In ClC(Cl)(Cl)Cl
  photoluminescence quantum yield: 0.95
In ClC(Cl)Cl
  photoluminescence quantum yield: 0.81
In ClCCl
  photoluminescence quantum yield: 0.23

## CN(C)c1ccc(N(C)C)cc1
In C1CCCCC1
  photoluminescence quantum yield: 0.21

## O=C1O[B-]2(OC1=O)OC(c1ccc3ccccc3c1)=CC(c1ccc3ccccc3c1)=[O+]2
In CC#N
  photoluminescence quantum yield: 0.3
In ClC(Cl)(Cl)Cl
  photoluminescence quantum yield: 0.8

## COC(=O)c1noc(-c2ccccc2)c1Cl
In C1CCCCC1
  photoluminescence quantum yield: 0.368

## COc1ccccc1-c1nc2c3cccnc3c3ncccc3c2n1-c1ccccc1
In Cc1ccccc1
  photoluminescence quantum yield: 0.064

## C=C(C)C(CN1C(=O)c2cccc3c2c(cc2oc(C)nc23)C1=O)OO (stereo not drawn)
In CCO
  photoluminescence quantum yield: 0.096

## CCCCCCCCCCN1C(=O)c2cc(NCCCOCCO)c3c4c(cc(NCCCOCCO)c(c24)C1=O)C(=O)N(CCCCCCCCCC)C3=O
In CO
  photoluminescence quantum yield: 0.43
In ClC(Cl)Cl
  photoluminescence quantum yield: 0.58

## O=C1[C@@H]2[C@H](C(=O)N1c1cccc3cc4ccccc4cc13)[C@@H]1C=C[C@H]2C1
In ClC(Cl)Cl
  photoluminescence quantum yield: 0.26

## CN(C)c1ccc(/C=C/c2cc(/C=C/c3ccc(N(C)C)cc3)nc(/C=C/c3ccc(N(C)C)cc3)n2)cc1
In ClCCl
  photoluminescence quantum yield: 0.22

## CCCCN1C(=O)c2cc(Oc3ccc(C(C)(C)C)cc3)c3c4c(Oc5ccc(C(C)(C)C)cc5)cc5c6c(cc(Oc7ccc(C(C)(C)C)cc7)c(c7c(Oc8ccc(C(C)(C)C)cc8)cc(c2c37)C1=O)c64)C(=O)N(CCCC)C5=O
In C1CCOC1
  photoluminescence quantum yield: 0.82
In Cc1ccccc1
  photoluminescence quantum yield: 0.811
In ClC(Cl)Cl
  photoluminescence quantum yield: 0.83
In ClCCl
  photoluminescence quantum yield: 0.802

## Cc1cc(C)c([B-]2(c3c(C)cc(C)cc3C)[O+]=P(c3ccccc3)(c3ccccc3)c3ccsc3-c3sccc32)c(C)c1
In C1CCOC1
  photoluminescence quantum yield: 0.23

## N#CC(C#N)=Cc1ccc(-c2ccc(-c3nc4ccccc4s3)c(O)c2)s1
In CCO
  photoluminescence quantum yield: 0.0111
In ClCCl
  photoluminescence quantum yield: 0.0197
In O
  photoluminescence quantum yield: 0.01

## CCN(CC)c1ccc2cc(/C=C3\CCCc4c3[o+]c3cc(N(CC)CC)ccc3c4-c3ccccc3C(=O)O)c(=O)oc2c1
In ClCCl
  photoluminescence quantum yield: 0.07

## CCN(CC)c1ccc2c(c1)oc(=O)c1c(=O)oc3cc(Br)ccc3c12
In CS(C)=O
  photoluminescence quantum yield: 0.25
In ClCCl
  photoluminescence quantum yield: 0.9

## C#Cc1ccc2cc3c(C)cc(=O)oc3cc2c1
In CCO
  photoluminescence quantum yield: 0.01

## CCCN1/C(=C/C=C(/C=C/C2=[N+](CCC)c3ccccc3C2(C)C)c2ccc3ccccc3n2)C(C)(C)c2ccccc21
In CO
  photoluminescence quantum yield: 0.18
In CS(C)=O
  photoluminescence quantum yield: 0.37
In O
  photoluminescence quantum yield: 0.01
